We go through 16 compounds from US10221173B2, “Chemical compounds” (AstraZeneca AB, priority 2017, dated 2019).

Data set [1] deals with estrogen receptor (ERα) in CAMA-1 cells (Homo sapiens (Human), UniProt P03372). In words: Western blotting assay, ER down-regulation in CAMA-1. The data set is classed as cell-based. The settings on record: CAMA-1, 100 nM compound, 48 h, vs 100 nM fulvestrant. In general terms: A western blot detects proteins with antibodies after separation by electrophoresis.
Sequence of estrogen receptor (ERα) in CAMA-1 cells (P03372 whole entry): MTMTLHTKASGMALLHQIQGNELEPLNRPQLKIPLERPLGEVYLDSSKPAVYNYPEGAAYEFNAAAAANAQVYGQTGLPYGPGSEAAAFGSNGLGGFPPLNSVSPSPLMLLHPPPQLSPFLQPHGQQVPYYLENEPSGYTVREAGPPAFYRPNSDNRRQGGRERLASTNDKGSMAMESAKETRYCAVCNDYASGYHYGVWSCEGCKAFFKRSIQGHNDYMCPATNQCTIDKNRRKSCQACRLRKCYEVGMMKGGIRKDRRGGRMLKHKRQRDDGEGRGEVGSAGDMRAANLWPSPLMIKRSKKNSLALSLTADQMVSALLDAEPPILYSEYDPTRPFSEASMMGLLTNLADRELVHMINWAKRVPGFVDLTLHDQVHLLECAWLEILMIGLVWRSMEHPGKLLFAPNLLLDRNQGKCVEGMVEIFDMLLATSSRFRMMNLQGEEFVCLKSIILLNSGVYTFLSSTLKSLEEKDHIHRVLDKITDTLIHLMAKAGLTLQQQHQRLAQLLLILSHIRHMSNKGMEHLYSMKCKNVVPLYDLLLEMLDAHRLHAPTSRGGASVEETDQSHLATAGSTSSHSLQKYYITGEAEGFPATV
Data set [2] has as its target T1, Estrogen Receptor (ERα) in MCF-7 cells (Homo sapiens (Human), UniProt P03372). The experiment in a line: Western blotting assay, ER down-regulation in MCF-7. The format is cell-based. The following applies: MCF-7, 100 nM compound, 48 h, vs 100 nM fulvestrant.
A short description of data set [3]: Thermodynamic solubility (shake-flask). The format is physicochemical. The following applies: aqueous phosphate buffer, 25 °C, pH 7.4, aqueous buffer, thermodynamic from solid, phosphate buffer pH 7.4, 24 hours.
The target in another data set is hERG potassium channel (Homo sapiens (Human), UniProt Q12809).
Sequence of hERG potassium channel (Q12809 whole entry, the tested form may be a part): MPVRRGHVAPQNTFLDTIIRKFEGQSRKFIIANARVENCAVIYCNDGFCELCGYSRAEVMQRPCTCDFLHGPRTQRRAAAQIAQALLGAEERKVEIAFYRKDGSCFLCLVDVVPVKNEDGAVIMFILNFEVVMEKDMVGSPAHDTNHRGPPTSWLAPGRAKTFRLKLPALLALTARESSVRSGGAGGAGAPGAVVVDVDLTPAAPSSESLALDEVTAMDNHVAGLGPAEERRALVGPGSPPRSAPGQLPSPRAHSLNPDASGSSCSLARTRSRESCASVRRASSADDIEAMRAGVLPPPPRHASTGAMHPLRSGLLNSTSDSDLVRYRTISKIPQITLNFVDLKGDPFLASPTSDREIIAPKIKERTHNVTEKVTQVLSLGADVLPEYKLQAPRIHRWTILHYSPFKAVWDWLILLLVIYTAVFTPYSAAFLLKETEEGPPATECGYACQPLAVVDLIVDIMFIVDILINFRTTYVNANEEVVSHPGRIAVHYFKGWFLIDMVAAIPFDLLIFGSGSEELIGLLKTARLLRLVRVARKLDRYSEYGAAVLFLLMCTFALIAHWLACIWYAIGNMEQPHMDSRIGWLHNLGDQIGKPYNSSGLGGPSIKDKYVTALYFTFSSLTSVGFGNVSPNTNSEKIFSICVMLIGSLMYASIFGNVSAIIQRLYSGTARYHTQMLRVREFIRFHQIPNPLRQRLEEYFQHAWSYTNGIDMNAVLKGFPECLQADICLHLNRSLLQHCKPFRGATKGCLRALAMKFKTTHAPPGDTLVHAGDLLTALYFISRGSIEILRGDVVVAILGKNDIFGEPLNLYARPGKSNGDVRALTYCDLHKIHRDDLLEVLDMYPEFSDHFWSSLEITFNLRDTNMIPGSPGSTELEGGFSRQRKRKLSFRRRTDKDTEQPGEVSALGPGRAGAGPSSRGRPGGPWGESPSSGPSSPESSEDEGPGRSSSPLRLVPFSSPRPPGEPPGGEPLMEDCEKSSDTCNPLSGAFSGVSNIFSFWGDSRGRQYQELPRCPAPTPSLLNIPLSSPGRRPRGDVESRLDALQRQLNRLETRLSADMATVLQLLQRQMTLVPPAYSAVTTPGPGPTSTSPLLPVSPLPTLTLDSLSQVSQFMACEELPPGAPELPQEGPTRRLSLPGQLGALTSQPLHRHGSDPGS
In data set [4] the target is recombinant human Estrogen Receptor alpha ligand binding domain (ER alpha-LBD (GST)) (Homo sapiens (Human), UniProt P03372). The experiment in a line: ERα binding assay (LanthaScreen TR-FRET competition). Background: TR-FRET usually uses a lanthanide donor and a delayed reading to cut background.
Sequence of recombinant human Estrogen Receptor alpha ligand binding domain (ER alpha-LBD (GST)) (P03372 307-554): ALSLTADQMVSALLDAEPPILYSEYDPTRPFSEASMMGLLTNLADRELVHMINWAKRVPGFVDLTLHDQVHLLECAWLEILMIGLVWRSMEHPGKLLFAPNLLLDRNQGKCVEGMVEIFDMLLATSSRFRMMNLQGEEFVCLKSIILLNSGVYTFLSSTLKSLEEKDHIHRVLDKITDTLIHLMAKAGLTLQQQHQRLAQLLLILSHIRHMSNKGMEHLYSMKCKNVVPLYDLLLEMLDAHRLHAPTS
Data set [5] has as its target T1, Estrogen Receptor (ERα) in MCF-7 cells. In words: MCF-7 ER down-regulation assay (immuno-fluorescence). The data set is classed as cell-based.
Description: The ability of compounds to down-regulate Estrogen Receptor (ER) numbers was assessed in a cell based immuno-fluorescence assay using the MCF-7 human ductal carcinoma breast cell line. MCF-7 cells were revived directly from a cryovial (approx 5×10^6 cells) in Assay Medium (phenol red free Dulbecco's Modified Eagle's medium (DMEM); Sigma D5921) containing 2 mM L-Glutamine and 5% (v/v) Charcoal/Dextran treated foetal calf serum. Cells were syringed once using a sterile 18G×1.5 inch (1.2×40 mm) broad gauge needle and cell density was measured using a Coulter Counter (Beckman). […] Following cell seeding, plates were incubated overnight at 37° C., 5% CO2 (Liconic carousel incubator). Test data was generated using the LabCyte Echomodel 555 compound reformatter which is part of an automated workcell (Integrated Echo 2 workcell). Compound stock solutions (10 mM) of the test compounds were used to generate a 384 well compound dosing plate (Labcyte P-05525-CV1). […] 40 μL of DMSO added to wells in row P on the source plate allowed for DMSO normalisation across the dose range. To dose the control wells 40 μL of DMSO was added to row O1 and 40 μL of 100 μM fulvestrant in DMSO was added to row O3 on the compound source plate.
The Echo uses acoustic technology to perform direct microplate-to-microplate transfers of DMSO compound solutions to assay plates. The system can be programmed to transfer volumes as low as 2.5 nL in multiple increments between microplates and in so doing generates a serial dilution of compound in the assay plate which is then back-filled to normalise the DMSO concentration across the dilution range. […] The fixing method described above was carried out on the Integrated Echo 2 workcell. Immunostaining was performed using an automated AutoElisa workcell. The PBS/Proclin was aspirated from all wells and the cells permeabilised with 40 μL PBS containing 0.5% Tween™ 20 (v/v) for 1 hour at room temperature. The plates were washed three times in 250 μL of PBS/0.05% (v/v) Tween 20 with Proclin (PBST with a Biocide preservative) and then 20 μL of ERα (SP1) Rabbit monoclonal antibody (Thermofisher) 1:1000 in PBS/Tween™/3% (w/v) Bovine Serum Albumin was added. The plates were incubated overnight at 4° C. (Liconic carousel incubator) and then washed three times in 250 μL of PBS/0.05% (v/v) Tween™ 20 with Proclin (PBST). The plates were then incubated with 20 μL/well of a goat anti-rabbit IgG AlexaFluor 594 or goat anti-rabbit AlexaFluor 488 antibody (Molecular Probes) with Hoechst at 1:5000 in PBS/Tween™/3% (w/v) Bovine Serum Albumin for 1 hour at room temperature. The plates were then washed three times in 250 μL of PBS/0.05% (v/v) Tween™ 20 with Proclin (PBST with a Biocide preservative). 20 μL of PBS was added to each well and the plates covered with a black plate seal and stored at 4° C. before being read. […] The mean total intensity was normalized for cell number giving the total intensity per cell. The data was exported into a suitable software package (such as Origin) to perform curve fitting analysis.
The nature of data set [6]: Log D (shake flask, 1-octanol/aqueous buffer). The data set is classed as physicochemical. The following applies: 1-octanol/aqueous buffer, pH 7.4, pH 7.4.
Data set [7] is described as follows: Human plasma protein binding (equilibrium dialysis). The data set is classed as in vitro ADME. (In general: Equilibrium dialysis compares concentrations on both sides of a semipermeable membrane.)

In brackets after ≈: the same amount, converted by molar mass.

T1 sequence (P03372 whole entry): as the sequence (P03372 whole entry) above
Description for hERG potassium channel: The assay was conducted as follows with all reagents used at room temperature unless otherwise stated.
All compounds were acoustically dispensed in quadruplicate using a Labcyte Echo.
Calculation of results is performed using APC package within Genedata. For the routine normalization of well data with Neutral and Inhibitor control well groups as reference, GeneData Assay Analyzer uses the following equation to normalize the signal values to the desired signal range:
[formula] x is the measured raw signal value of a well is the median of the measured signal values for the Central Reference (Neutral) wells on a plate is the median of the measured signal values for the Scale Reference (Inhibitor) wells on a plate CR is the desired median normalized value for the Central Reference (Neutral) SR is the desired median normalized value for the Scale Reference (Inhibitor)

As to `C[C@@H]1Cc2c([nH]c3ccccc23)[C@@H](c2cccc(OCCNCCCF)c2)N1CC1(F)COC1` [Example 1, 3-Fluoro-N-(2-(3-((1R,3R)-2-((3-fluorooxetan-3-yl)methyl)-3-methyl-2,3,4,9-tetrahydro-1H-pyrido[3,4-b]indol-1-yl)phenoxy)ethyl)propan-1-amine], the “CAMA1 Western % ER deg vs Fv” value in data set [1] was found to be 66%. Besides, the “MCF7 Western % ER deg vs Fv” value in data set [2] came out at 79%. In data set [3], the solubility (as a rule, the concentration that dissolves in the medium under given conditions) at 24 h is 303 µM (≈ 142 µg/mL). At hERG potassium channel, the concentration for half-maximal inhibition (IC50) (as a rule, the midpoint of a concentration-inhibition curve) is 4.4 µM.

In the case of `COc1ccc(OCCNCCCF)cc1[C@@H]1c2[nH]c3ccccc3c2C[C@@H](C)N1CC1(F)COC1` [Example 4, 3-Fluoro-N-(2-(3-((1R,3R)-2-((3-fluorooxetan-3-yl)methyl)-3-methyl-2,3,4,9-tetrahydro-1H-pyrido[3,4-b]indol-1-yl)-4-methoxyphenoxy)ethyl)propan-1-amine], the “CAMA1 Western % ER deg vs Fv” value in data set [1] was 75%. For the same compound, the “MCF7 Western % ER deg vs Fv” value in data set [2] was determined as 56%. This compound registered a solubility at 24 h in data set [3] of 543 µM (≈ 271 µg/mL).

Regarding `COc1ccc(OCCNCCCF)cc1[C@@H]1c2[nH]c3ccccc3c2C[C@@H](C)N1CC(F)F` [Example 6, N-(2-(3-((1R,3R)-2-(2,2-difluoroethyl)-3-methyl-2,3,4,9-tetrahydro-1H-pyrido[3,4-b]indol-1-yl)-4-methoxyphenoxy)ethyl)-3-fluoropropan-1-amine], the “CAMA1 Western % ER deg vs Fv” value in data set [1] is listed as 81%. Also, the “MCF7 Western % ER deg vs Fv” value in data set [2] was 97%. Besides, the solubility at 24 h in data set [3] is 154 µM (≈ 73.2 µg/mL).

Take `COc1ccc(OCCNCCCF)cc1[C@@H]1c2[nH]c3ccccc3c2C[C@@H](C)N1CC(F)(F)F` [Example 7, 3-Fluoro-N-(2-(4-methoxy-3-((1R,3R)-3-methyl-2-(2,2,2-trifluoroethyl)-2,3,4,9-tetrahydro-1H-pyrido[3,4-b]indol-1-yl)phenoxy)ethyl)propan-1-amine]: the IC50 in data set [4] was 1.5 nM; in data set [5], 0.12 nM; against hERG potassium channel, 3.8 µM. The “CAMA1 Western % ER deg vs Fv” value in data set [1] stood at 90%. In data set [2], the “MCF7 Western % ER deg vs Fv” value stood at 100%. Further, the logD (usually lipophilicity at a set pH, counting ionised and neutral species) in data set [6] is 3.7. In data set [3], this compound gave a solubility at 24 h of 35 µM (≈ 17.3 µg/mL). The “Human plasma protein binding (% free)” value in data set [7] came to 1.5 % free.

For `COc1ccc(OCCNCCCF)cc1[C@@H]1c2[nH]c3ccccc3c2C[C@@H](C)N1CC(F)(F)CO` [Example 8, 2,2-Difluoro-3-((1R,3R)-1-(5-(2-((3-fluoropropyl)amino)ethoxy)-2-methoxyphenyl)-3-methyl-1,3,4,9-tetrahydro-2H-pyrido[3,4-b]indol-2-yl)propan-1-ol], the “CAMA1 Western % ER deg vs Fv” value in data set [1] is given as 93%. In data set [2], the “MCF7 Western % ER deg vs Fv” value was 98%. Besides, in data set [3], the solubility at 24 h worked out at 617 µM (≈ 312 µg/mL).

With `COc1cnc(OCCNCCCF)cc1[C@@H]1c2[nH]c3ccccc3c2C[C@@H](C)N1CC(F)(F)F` [Example 12, 3-fluoro-N-(2-((5-methoxy-4-((1R,3R)-3-methyl-2-(2,2,2-trifluoroethyl)-2,3,4,9-tetrahydro-1H-pyrido[3,4-b]indol-1-yl)pyridin-2-yl)oxy)ethyl)propan-1-amine], the half-maximal inhibitory concentration (IC50) in data set [4] is 0.62 nM; in data set [5] it was 0.059 nM; on hERG potassium channel, 8.2 µM. Besides, the “CAMA1 Western % ER deg vs Fv” value in data set [1] is 89%. Also, in data set [2], the “MCF7 Western % ER deg vs Fv” value stood at 92%.

On to `C[C@@H]1Cc2c([nH]c3ccccc23)[C@@H](c2c(F)ccc(OCCNCCCF)c2F)N1CC1(F)COC1` [Example 13, N-(2-(2,4-difluoro-3-((1R,3R)-2-((3-fluorooxetan-3-yl)methyl)-3-methyl-2,3,4,9-tetrahydro-1H-pyrido[3,4-b]indol-1-yl)phenoxy)ethyl)-3-fluoropropan-1-amine], for which the figures for the IC50 (in data set [4]; in data set [5]; on hERG potassium channel) were 1.6 nM, 0.22 nM and 2.6 µM, respectively. Besides, in data set [1], the “CAMA1 Western % ER deg vs Fv” value is reported as 92%. Besides, the “MCF7 Western % ER deg vs Fv” value in data set [2] came out at 83%. The compound further showed a pH-dependent lipophilicity (logD) in data set [6] of 2.6. In addition, the solubility at 24 h in data set [3] is 493 µM (≈ 249 µg/mL). In data set [7], the “Human plasma protein binding (% free)” value was 3.5 % free.

For the compound `C[C@@H]1Cc2c([nH]c3ccccc23)[C@@H](c2cccc(OCCNCCCF)c2)N1CC(F)(F)F` [Example 16, 3-fluoro-N-(2-(3-((1R,3R)-3-methyl-2-(2,2,2-trifluoroethyl)-2,3,4,9-tetrahydro-1H-pyrido[3,4-b]indol-1-yl)phenoxy)ethyl)propan-1-amine], in data set [1], the “CAMA1 Western % ER deg vs Fv” value was 83%. Besides, the “MCF7 Western % ER deg vs Fv” value in data set [2] worked out at 89%. In data set [3], this compound yielded a solubility at 24 h of 74 µM (≈ 34.3 µg/mL).

Consider `CCc1ccc(OCCNCCCF)cc1[C@@H]1c2[nH]c3ccccc3c2C[C@@H](C)N1CC(F)(F)F` [Example 21, N-(2-(4-ethyl-3-((1R,3R)-3-methyl-2-(2,2,2-trifluoroethyl)-2,3,4,9-tetrahydro-1H-pyrido[3,4-b]indol-1-yl)phenoxy)ethyl)-3-fluoropropan-1-amine], for which the IC50 in data set [4] was 2.6 nM; in data set [5], 1.6 nM. Moreover, the “CAMA1 Western % ER deg vs Fv” value in data set [1] came to 95%. In data set [2], the “MCF7 Western % ER deg vs Fv” value turned out to be 99%. The compound also came in with a logD in data set [6] of 4.6. In data set [3], the solubility at 24 h is 3 µM (≈ 1.47 µg/mL). In data set [7], the “Human plasma protein binding (% free)” value was 0.10 % free.

For `C[C@@H]1Cc2c([nH]c3ccccc23)[C@@H](c2cc(OCCNCCCF)ccc2Cl)N1CC(F)(F)F` [Example 22, N-(2-(4-chloro-3-((1R,3R)-3-methyl-2-(2,2,2-trifluoroethyl)-2,3,4,9-tetrahydro-1H-pyrido[3,4-b]indol-1-yl)phenoxy)ethyl)-3-fluoropropan-1-amine], the values for the IC50 in data set [4] and in data set [5] were 1.4 nM and 0.12 nM, respectively. The “CAMA1 Western % ER deg vs Fv” value in data set [1] is recorded as 96%. The “MCF7 Western % ER deg vs Fv” value in data set [2] is on record as 96%. For the same compound, the logD in data set [6] amounted to 4.2. Further, the solubility at 24 h in data set [3] was determined as 0.7 µM (≈ 0.349 µg/mL). Also, the “Human plasma protein binding (% free)” value in data set [7] came to 0.61 % free.

With `C[C@@H]1Cc2c([nH]c3ccccc23)[C@@H](c2c(F)ccc(OCCNCCCF)c2F)N1C[C@H](C)C(=O)O` [Example 58, (S)-3-((1R,3R)-1-(2,6-difluoro-3-(2-((3-fluoropropyl)amino)ethoxy)phenyl)-3-methyl-1,3,4,9-tetrahydro-2H-pyrido[3,4-b]indol-2-yl)-2-methylpropanoic acid], in data set [1], the “CAMA1 Western % ER deg vs Fv” value was found to be 83%. In data set [2], the “MCF7 Western % ER deg vs Fv” value is listed as 76%. In data set [3], this compound came in with a solubility at 24 h of over 1000 µM.

In the case of `C[C@@H]1Cc2c([nH]c3ccccc23)[C@@H](c2nccc(OCCNCCCF)c2F)N1CC(F)(F)F` [Example 92, 3-fluoro-N-(2-((3-fluoro-2-((1S,3R)-3-methyl-2-(2,2,2-trifluoroethyl)-2,3,4,9-tetrahydro-1H-pyrido[3,4-b]indol-1-yl)pyridin-4-yl)oxy)ethyl)propan-1-amine], the figures for the IC50 (in data set [4]; in data set [5]; against hERG potassium channel) were 1.6 nM, 0.4 nM and 23 µM, respectively. The “CAMA1 Western % ER deg vs Fv” value in data set [1] was found to be 91%. For the same compound, in data set [2], the “MCF7 Western % ER deg vs Fv” value is 93%. The same compound had a pH-dependent lipophilicity (logD) in data set [6] of 2.7. The compound further had a solubility at 24 h in data set [3] of 468 µM (≈ 226 µg/mL).

Take `Cc1c(OCCNCCCF)ncc(F)c1[C@@H]1c2[nH]c3ccccc3c2C[C@@H](C)N1CC(F)(F)CO` [Example 110, 2,2-difluoro-3-((1R,3R)-1-(5-fluoro-2-(2-((3-fluoropropyl)amino)ethoxy)-3-methylpyridin-4-yl)-3-methyl-1,3,4,9-tetrahydro-2H-pyrido[3,4-b]indol-2-yl)propan-1-ol]: the half-inhibitory concentration (IC50) in data set [4] turned out to be 0.43 nM; in data set [5], 0.045 nM; against hERG potassium channel it was 2.8 µM. Besides, in data set [1], the “CAMA1 Western % ER deg vs Fv” value is recorded as 83%. For the same compound, in data set [2], the “MCF7 Western % ER deg vs Fv” value stood at 91%. In data set [6], the logD came to 3.1. In addition, in data set [3], the solubility at 24 h turned out to be 939 µM (≈ 478 µg/mL).

Take `C[C@@H]1Cc2c([nH]c3ccccc23)[C@@H](c2c(F)cnc(OCCNCCCF)c2Cl)N1CC(F)(F)CO` [Example 111, 3-((1R,3R)-1-(3-chloro-5-fluoro-2-(2-((3-fluoropropyl)amino)ethoxy)pyridin-4-yl)-3-methyl-1,3,4,9-tetrahydro-2H-pyrido[3,4-b]indol-2-yl)-2,2-difluoropropan-1-ol]: the figures for the IC50 in data set [4] and in data set [5] were 0.6 nM and 0.07 nM, respectively. The “CAMA1 Western % ER deg vs Fv” value in data set [1] turned out to be 92%. The “MCF7 Western % ER deg vs Fv” value in data set [2] was 84%. Moreover, the logD in data set [6] is 3.1. This compound displayed a solubility at 24 h in data set [3] of 469 µM (≈ 248 µg/mL). Moreover, the “Human plasma protein binding (% free)” value in data set [7] was 1.4 % free.

For `Cc1c(OCCNCCCF)ccc(F)c1[C@@H]1c2[nH]c3ccccc3c2C[C@@H](C(F)F)N1C[C@H](C)C(=O)O` [Example 137, (S)-3-((1R,3S)-3-(difluoromethyl)-1-(6-fluoro-3-(2-((3-fluoropropyl)amino)ethoxy)-2-methylphenyl)-1,3,4,9-tetrahydro-2H-pyrido[3,4-b]indol-2-yl)-2-methylpropanoic acid], the IC50 was 1.7 nM in data set [4] and 0.52 nM in data set [5]. Also, the “CAMA1 Western % ER deg vs Fv” value in data set [1] came to 95%. Moreover, in data set [2], the “MCF7 Western % ER deg vs Fv” value is 90%.

For the compound `C[C@@H](CN1[C@H](c2c(F)cnc(OCCNCCCF)c2Cl)c2[nH]c3ccccc3c2C[C@H]1C(F)(F)F)C(=O)O` [Example 142, (S)-3-((1R,3S)-1-(3-chloro-5-fluoro-2-(2-((3-fluoropropyl)amino)ethoxy)pyridin-4-yl)-3-(trifluoromethyl)-1,3,4,9-tetrahydro-2H-pyrido[3,4-b]indol-2-yl)-2-methylpropanoic acid], the IC50 in data set [4] worked out at 1.5 nM; in data set [5], 0.95 nM. Further, in data set [1], the “CAMA1 Western % ER deg vs Fv” value came to 80%. Moreover, the “MCF7 Western % ER deg vs Fv” value in data set [2] is listed as 85%.
